The source of these data is ChEMBL document CHEMBL4834450, “Design, synthesis and antimicrobial activity of novel 2-aminothiophene containing cyclic and heterocyclic moieties” (2021).

Holding throughout (type): functional
What all share (settings): read-out: DIZ

For one assay, the system named is Aspergillus fumigatus. The assay can be described thus: Antifungal activity against Aspergillus fumigatus HIC6094 at 5 ug/ml.
The test system of the next assay is Bacillus subtilis. The assay can be described thus: Antibacterial activity against Bacillis subtilis BS-GA28 at 5 ug/ml.
The subject of another assay is Pseudomonas aeruginosa. The assay can be described thus: Antibacterial activity against Pseudomonas aeruginosa MTCC441 at 5 ug/ml.
The test system of another assay is Escherichia coli. The experiment in a line: Antibacterial activity against Escherichia coli MTCC442 at 5 ug/ml.
Assay [1] deals with Syncephalastrum racemosum. The assay can be described thus: Antifungal activity against Syncephalastrum racemosum RCMB05922 at 5 ug/ml.
For the next assay, the system named is Streptococcus pneumoniae. The experiment in a line: Antibacterial activity against Streptococcus pneumoniae ATCC49619 at 5 ug/ml.
The next assay relates to Candida albicans. The experiment in a line: Antifungal activity against Candida albicans MTCC227 at 5 ug/ml.
A further assay concerns Geotrichum candidum. The assay can be described thus: Antifungal activity against Geotrichum candidum RCMB05097 at 5 ug/ml.

In the case of `CCOC(=O)c1c(Nc2ccccc2)sc(-c2ccnc(S)n2)c1-c1ccccc1`, the zone of inhibition at 5 µg/mL in the assay with Aspergillus fumigatus worked out at 15.7 mm; in the assay on Bacillus subtilis, 12.7 mm; in the assay with Pseudomonas aeruginosa, 9.8 mm; with Escherichia coli, 11.3 mm; in assay [1] it was 16.6 mm; with Streptococcus pneumoniae, 12.3 mm. Also, the zone of inhibition at 5 µg/mL amounted to 12.7 mm with Candida albicans and 12.6 mm with Geotrichum candidum.

`CCOC(=O)c1c(Nc2ccccc2)sc(-c2ccn(-c3ccc(Cl)cc3)n2)c1-c1ccccc1`: the zone of inhibition at 5 µg/mL in the assay with Aspergillus fumigatus is 26.3 mm; in the assay with Bacillus subtilis it was 18.9 mm; in the assay with Pseudomonas aeruginosa, 10.8 mm; in the assay with Escherichia coli it was 11.1 mm; in assay [1], 20.9 mm; in the assay on Streptococcus pneumoniae, 18.2 mm. Besides, the values for the zone of inhibition at 5 µg/mL in the assay with Candida albicans and in the assay with Geotrichum candidum were 11.2 mm and 12.6 mm, respectively.

As for `CCOC(=O)c1ccc(-c2sc(Nc3ccccc3)c(C(=O)OCC)c2-c2ccccc2)nc1C`, the zone of inhibition at 5 µg/mL with Aspergillus fumigatus came to 26.3 mm; with Bacillus subtilis, 18.9 mm; with Pseudomonas aeruginosa, 10.8 mm; with Escherichia coli it was 11.1 mm; in assay [1], 20.9 mm; in the assay on Streptococcus pneumoniae it was 18.2 mm. The zone of inhibition at 5 µg/mL worked out at 11.2 mm with Candida albicans and 12.6 mm in the assay on Geotrichum candidum.

Turning to `CCOC(=O)c1c(Nc2ccccc2)sc(C(=O)/C=C/c2ccc([N+](=O)[O-])cc2[N+](=O)[O-])c1-c1ccccc1`, the zone of inhibition at 5 µg/mL in the assay with Aspergillus fumigatus is 18.9 mm; in the assay on Bacillus subtilis, 18.9 mm; in the assay with Pseudomonas aeruginosa, 11.3 mm; in the assay on Escherichia coli, 9.9 mm; in assay [1] it was 19.6 mm; with Streptococcus pneumoniae it was 16.5 mm. In addition, the zone of inhibition at 5 µg/mL in the assay on Candida albicans amounted to 13.4 mm; in the assay on Geotrichum candidum, 14.8 mm.

On to `CCOC(=O)c1c(Nc2ccccc2)sc(C(=O)/C=C/c2ccc(O)cc2)c1-c1ccccc1`, for which the zone of inhibition at 5 µg/mL with Aspergillus fumigatus was determined as 15.7 mm; with Bacillus subtilis, 21.4 mm; in the assay with Pseudomonas aeruginosa, 18.7 mm; in the assay with Escherichia coli, 19.5 mm; in assay [1] it was 11.2 mm; in the assay on Streptococcus pneumoniae, 26.7 mm. Besides, the zone of inhibition at 5 µg/mL in the assay on Candida albicans was 13.3 mm; in the assay on Geotrichum candidum it was 17.3 mm.

Consider `CCOC(=O)c1c(Nc2ccccc2)sc(-c2ccn(-c3ccccc3)n2)c1-c1ccccc1`, for which the zone of inhibition at 5 µg/mL came to 15.9 mm in the assay with Aspergillus fumigatus; 12.7 mm in the assay on Bacillus subtilis; 11.6 mm in the assay with Pseudomonas aeruginosa; 10.9 mm with Escherichia coli; 18.9 mm in assay [1]; 12.3 mm in the assay on Streptococcus pneumoniae. The values for the zone of inhibition at 5 µg/mL in the assay on Candida albicans and in the assay with Geotrichum candidum were 15.8 mm and 19.1 mm, respectively.

Turning to `CCOC(=O)c1c(Nc2ccccc2)sc(C(=O)/C=C/c2ccc(Cl)cc2)c1-c1ccccc1`, the zone of inhibition at 5 µg/mL with Aspergillus fumigatus is 22.3 mm; with Bacillus subtilis, 29.8 mm; in the assay with Pseudomonas aeruginosa it was 12.3 mm; in the assay on Escherichia coli it was 17.6 mm; in assay [1], 16.5 mm; in the assay with Streptococcus pneumoniae it was 19.5 mm. The results for the zone of inhibition at 5 µg/mL in the assay on Candida albicans and with Geotrichum candidum were 12.3 mm and 25.8 mm, respectively.

With `CCOC(=O)c1c(Nc2ccccc2)sc(C(=O)c2cn(-c3ccc(Cl)cc3)nc2C(C)=O)c1-c1ccccc1`, the zone of inhibition at 5 µg/mL in the assay on Aspergillus fumigatus amounted to 16.3 mm; in the assay on Bacillus subtilis, 14.3 mm; in the assay with Pseudomonas aeruginosa, 10.2 mm; with Escherichia coli, 8.8 mm; in assay [1], 14.8 mm; with Streptococcus pneumoniae it was 14.6 mm. Further, the zone of inhibition at 5 µg/mL with Candida albicans stood at 14.3 mm; with Geotrichum candidum, 15.3 mm.

Turning to `CCOC(=O)c1c(Nc2ccccc2)sc(C(=O)/C=C\Nc2ccc([N+](=O)[O-])cc2)c1-c1ccccc1`, the zone of inhibition at 5 µg/mL in the assay with Aspergillus fumigatus stood at 12.6 mm; in the assay on Bacillus subtilis, 29.8 mm; in the assay on Pseudomonas aeruginosa it was 12.3 mm; in the assay on Escherichia coli, 18.8 mm; in assay [1], 16.5 mm; in the assay on Streptococcus pneumoniae, 19.5 mm. Also, the zone of inhibition at 5 µg/mL was 10.9 mm in the assay with Candida albicans and 25.8 mm with Geotrichum candidum.

As for `CCOC(=O)c1c(Nc2ccccc2)sc(C(=O)/C=C/c2cccc(N(C)C)c2)c1-c1ccccc1`, the zone of inhibition at 5 µg/mL turned out to be 24.3 mm with Aspergillus fumigatus; 19.6 mm in the assay with Bacillus subtilis; 12.5 mm in the assay with Pseudomonas aeruginosa; 14.8 mm in the assay with Escherichia coli; 24.5 mm in assay [1]; 16.3 mm in the assay with Streptococcus pneumoniae. In addition, the zone of inhibition at 5 µg/mL in the assay with Candida albicans is 14.3 mm; in the assay on Geotrichum candidum, 25.8 mm.

As for `CCOC(=O)c1c(Nc2ccccc2)sc(-c2ccnc(O)n2)c1-c1ccccc1`, the zone of inhibition at 5 µg/mL in the assay with Aspergillus fumigatus is 18.2 mm; with Bacillus subtilis, 19.1 mm; in the assay on Pseudomonas aeruginosa, 11.4 mm; with Escherichia coli, 10.7 mm; in assay [1], 13.7 mm; with Streptococcus pneumoniae it was 16.3 mm. In addition, the zone of inhibition at 5 µg/mL with Candida albicans is 18.2 mm; in the assay with Geotrichum candidum, 19.1 mm.

In the case of `CCOC(=O)c1c(Nc2ccccc2)sc(C(=O)/C=C/c2ccc(OC)cc2)c1-c1ccccc1`, the zone of inhibition at 5 µg/mL came to 23.4 mm with Aspergillus fumigatus; 17.9 mm with Bacillus subtilis; 11.4 mm in the assay on Pseudomonas aeruginosa; 10.2 mm with Escherichia coli; 16.1 mm in assay [1]; 18.9 mm in the assay on Streptococcus pneumoniae. The zone of inhibition at 5 µg/mL with Candida albicans came out at 11.9 mm; with Geotrichum candidum, 10.8 mm.

Consider `CCOC(=O)c1c(Nc2ccccc2)sc(C(=O)c2cn(-c3ccc(C)cc3)nc2C(C)=O)c1-c1ccccc1`, for which the zone of inhibition at 5 µg/mL with Aspergillus fumigatus was found to be 15.7 mm; in the assay on Bacillus subtilis, 12.7 mm; in the assay on Pseudomonas aeruginosa it was 9.8 mm; with Escherichia coli it was 11.3 mm; in assay [1], 16.6 mm; in the assay on Streptococcus pneumoniae, 12.3 mm. The zone of inhibition at 5 µg/mL with Candida albicans amounted to 12.7 mm; with Geotrichum candidum, 12.6 mm.

Turning to `CCOC(=O)c1c(Nc2ccccc2)sc(C(=O)/C=C/c2ccc(Cl)c(Cl)c2)c1-c1ccccc1`, the zone of inhibition at 5 µg/mL in the assay with Aspergillus fumigatus amounted to 17.7 mm; in the assay on Bacillus subtilis, 10.7 mm; in the assay with Pseudomonas aeruginosa, 9.7 mm; in the assay on Escherichia coli, 8.9 mm; in assay [1], 15.4 mm; in the assay on Streptococcus pneumoniae it was 11.3 mm. Also, the values for the zone of inhibition at 5 µg/mL in the assay with Candida albicans and in the assay on Geotrichum candidum were 13.2 mm and 12.9 mm, respectively.

Turning to `CCOC(=O)c1c(Nc2ccccc2)sc(-c2ccnc(N)n2)c1-c1ccccc1`, the zone of inhibition at 5 µg/mL was determined as 18.2 mm in the assay on Aspergillus fumigatus; 19.1 mm with Bacillus subtilis; 11.4 mm with Pseudomonas aeruginosa; 10.7 mm in the assay on Escherichia coli; 13.7 mm in assay [1]; 16.3 mm in the assay with Streptococcus pneumoniae. Also, the zone of inhibition at 5 µg/mL with Candida albicans worked out at 18.2 mm; with Geotrichum candidum it was 19.1 mm.

In the case of `C[C@@H]1[C@H](O)[C@@H](C)/C=C/C=C/C=C/C=C/C=C/C=C/C=C/[C@H](O[C@@H]2O[C@H](C)[C@@H](O)[C@H](N)[C@@H]2O)C[C@@H]2O[C@](O)(C[C@@H](O)C[C@@H](O)[C@H](O)CC[C@@H](O)C[C@@H](O)CC(=O)O[C@H]1C)C[C@H](O)[C@H]2C(=O)O` [AMPHOTERICIN B], the zone of inhibition at 5 µg/mL in the assay with Aspergillus fumigatus was determined as 23.7 mm; in assay [1], 19.7 mm; in the assay on Candida albicans it was 25.4 mm; in the assay with Geotrichum candidum, 28.7 mm.

Consider `CC1(C)S[C@@H]2[C@H](NC(=O)[C@H](N)c3ccccc3)C(=O)N2[C@H]1C(=O)O` [AMPICILLIN], for which the zone of inhibition at 5 µg/mL in the assay on Bacillus subtilis was found to be 32.4 mm; with Streptococcus pneumoniae, 23.8 mm.
